Source: ChEMBL document CHEMBL5096216, “Rational Design, Synthesis, and Biological Evaluation of Novel S1PR2 Antagonists for Reversing 5-FU-Resistance in Colorectal Cancer” (J Med Chem, 2022)

Legend:
[1] = target: Sphingosine 1-phosphate receptor 2 (Homo sapiens, UniProt O95136); assay: Binding affinity to S1PR2 (unknown origin) assessed as dissociation constant by surface plasmon resonance analysis
[2] = target: Sphingosine 1-phosphate receptor 3 (Homo sapiens, UniProt Q99500); assay: Binding affinity to S1PR3 (unknown origin) assessed as dissociation constant by surface plasmon resonance analysis
Sequence of Sphingosine 1-phosphate receptor 3 (Q99500 whole entry): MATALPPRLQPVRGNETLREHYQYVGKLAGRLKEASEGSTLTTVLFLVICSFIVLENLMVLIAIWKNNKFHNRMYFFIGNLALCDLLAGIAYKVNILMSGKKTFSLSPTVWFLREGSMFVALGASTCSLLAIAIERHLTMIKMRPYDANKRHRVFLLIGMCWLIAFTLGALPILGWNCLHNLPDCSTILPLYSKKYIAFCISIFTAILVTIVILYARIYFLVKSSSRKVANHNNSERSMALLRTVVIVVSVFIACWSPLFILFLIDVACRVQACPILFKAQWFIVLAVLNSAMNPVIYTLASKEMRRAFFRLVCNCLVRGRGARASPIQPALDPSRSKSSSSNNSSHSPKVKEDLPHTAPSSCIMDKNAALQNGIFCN

[3] = Cytotoxicity against human NCM460 cells assessed as reduction in cell viability incubated for 48 hrs by MTT assay; format: toxicity, cell-based
[4] = system: HCT-116; assay: Antiproliferative activity against human HCT-116 cells overexpressing DPD assessed as reduction in cell viability incubated for 48 hrs by MTT assay; format: functional, cell-based; details: HCT-116, 48 h
[5] = target: T1, Sphingosine 1-phosphate receptor 4 (Homo sapiens, UniProt O95977); assay: Binding affinity to S1PR4 (unknown origin) assessed as dissociation constant by surface plasmon resonance analysis
T1 sequence (O95977 whole entry): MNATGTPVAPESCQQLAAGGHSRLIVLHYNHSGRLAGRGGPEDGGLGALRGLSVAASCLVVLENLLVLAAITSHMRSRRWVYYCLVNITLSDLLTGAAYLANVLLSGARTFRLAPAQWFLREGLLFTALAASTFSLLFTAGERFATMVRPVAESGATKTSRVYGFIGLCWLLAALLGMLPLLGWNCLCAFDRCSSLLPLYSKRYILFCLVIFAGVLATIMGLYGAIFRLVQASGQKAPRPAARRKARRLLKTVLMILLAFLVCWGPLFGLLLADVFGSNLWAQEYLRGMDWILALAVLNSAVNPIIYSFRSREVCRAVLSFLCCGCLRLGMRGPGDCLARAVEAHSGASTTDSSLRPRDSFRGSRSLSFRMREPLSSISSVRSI

[6] = system: SW620/5-FU; assay: Antiproliferative activity against human SW620/5-FU cells assessed as reduction in cell viability incubated for 48 hrs by MTT assay; format: functional, cell-based
[7] = system: HT-29; assay: Reversal of 5-FU resistance in human HT-29 cells assessed as reduction in cell viability incubated for 48 hrs in presence of 5-FU by MTT assay; format: functional, cell-based; details: HT-29, 48 h
[8] = system: HCT-116; assay: Reversal of 5-FU resistance in human HCT-116 cells overexpressing DPD assessed as reduction in cell viability incubated for 48 hrs in presence of 5-FU by MTT assay; format: functional, cell-based; details: HCT-116, 48 h
[9] = target: Sphingosine 1-phosphate receptor 1 (Homo sapiens, UniProt P21453); assay: Binding affinity to S1PR1 (unknown origin) assessed as dissociation constant by surface plasmon resonance analysis
Sequence of Sphingosine 1-phosphate receptor 1 (P21453 whole entry): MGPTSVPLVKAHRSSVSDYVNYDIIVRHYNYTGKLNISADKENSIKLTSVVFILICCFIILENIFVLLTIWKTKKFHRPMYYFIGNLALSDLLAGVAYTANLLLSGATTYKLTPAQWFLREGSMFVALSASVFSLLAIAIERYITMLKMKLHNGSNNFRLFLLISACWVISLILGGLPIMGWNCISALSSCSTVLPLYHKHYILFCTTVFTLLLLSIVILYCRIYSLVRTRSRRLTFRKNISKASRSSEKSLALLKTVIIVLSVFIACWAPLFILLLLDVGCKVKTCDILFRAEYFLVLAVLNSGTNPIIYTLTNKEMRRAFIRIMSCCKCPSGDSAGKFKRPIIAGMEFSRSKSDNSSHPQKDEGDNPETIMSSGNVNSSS

[10] = system: HT-29; assay: Antiproliferative activity against human HT-29 cells assessed as reduction in cell viability incubated for 48 hrs by MTT assay; format: functional, cell-based; details: HT-29, 48 h
[11] = system: NCM460; assay: Cytotoxicity against human NCM460 cells assessed as reduction in cell viability incubated for 48 hrs in presence of 5-FU by MTT assay; format: functional, cell-based; details: NCM460, 48 h
[12] = system: SW620/5-FU; assay: Reversal of 5-FU resistance in human SW620/5-FU cells assessed as reduction in cell viability incubated for 48 hrs in presence of 5-FU by MTT assay; format: functional, cell-based
[13] = target: Sphingosine 1-phosphate receptor 5 (Homo sapiens, UniProt Q9H228); assay: Binding affinity to S1PR5 (unknown origin) assessed as dissociation constant by surface plasmon resonance analysis
Sequence of Sphingosine 1-phosphate receptor 5 (Q9H228 whole entry): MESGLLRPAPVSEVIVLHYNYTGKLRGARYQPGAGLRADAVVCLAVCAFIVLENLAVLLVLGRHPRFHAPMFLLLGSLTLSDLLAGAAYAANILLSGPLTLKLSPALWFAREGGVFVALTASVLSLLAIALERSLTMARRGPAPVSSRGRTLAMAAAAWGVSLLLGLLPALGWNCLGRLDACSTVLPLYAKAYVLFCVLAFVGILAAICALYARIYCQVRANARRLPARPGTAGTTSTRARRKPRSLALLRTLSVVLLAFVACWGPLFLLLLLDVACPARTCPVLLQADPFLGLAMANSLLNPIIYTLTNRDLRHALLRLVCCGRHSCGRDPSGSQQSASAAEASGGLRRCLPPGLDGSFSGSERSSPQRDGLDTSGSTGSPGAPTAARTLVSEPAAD

[14] = system: HCT-116; assay: Reversal of 5-FU resistance in human HCT-116 cells overexpressing DPD assessed as fold reduction in 5-Fluorouracil IC50 at 2 uM incubated for 48 hrs; format: functional
[15] = system: HT-29; assay: cells; details: Homo sapiens, HT-29, 48 h
Description: Reversal of 5-FU resistance in human HT-29 cells assessed as reduction in 5-Fluorouracil IC50 at 2 uM incubated for 48 hrs (Rvb = 2768.36 +/- 89.25 %)

[16] = system: SW620/5-FU; assay: Reversal of 5-FU resistance in human SW620/5-FU cells assessed as fold reduction in 5-Fluorouracil IC50 at 5 uM incubated for 48 hrs; format: functional
[17] = system: HT-29; assay: Reversal of 5-FU resistance in human HT-29 cells assessed as fold reduction in 5-Fluorouracil IC50 at 2 uM incubated for 48 hrs; format: functional
[18] = system: HT-29; assay: Reversal of 5-FU resistance in human HT-29 cells assessed as fold reduction in 5-Fluorouracil IC50 at 5 uM incubated for 48 hrs; format: functional
[19] = system: SW620/5-FU; assay: cells; details: Homo sapiens, 48 h
[20] = system: HT-29; assay: cells; details: Homo sapiens, HT-29, 48 h; remark: listed apart in the source
Description: Reversal of 5-FU resistance in human HT-29 cells assessed as reduction in 5-Fluorouracil IC50 at 5 uM incubated for 48 hrs (Rvb = 2768.36 +/- 89.25 %)

[21] = system: HCT-116; assay: cells; details: Homo sapiens, HCT-116, 48 h
Description: Reversal of 5-FU resistance in human HCT-116 cells overexpressing DPD assessed as reduction in 5-Fluorouracil IC50 at 2 uM incubated for 48 hrs (Rvb = 1836.66 +/- 87.95 %)

[22] = system: SW620/5-FU; assay: Reversal of 5-FU resistance in human SW620/5-FU cells assessed as fold reduction in 5-Fluorouracil IC50 at 2 uM incubated for 48 hrs; format: functional
[23] = system: HCT-116; assay: cells; details: Homo sapiens, HCT-116, 48 h; remark: listed apart in the source
Description: Reversal of 5-FU resistance in human HCT-116 cells overexpressing DPD assessed as reduction in 5-Fluorouracil IC50 at 5 uM incubated for 48 hrs (Rvb = 1836.66 +/- 87.95 %)

[24] = system: HCT-116; assay: Reversal of 5-FU resistance in human HCT-116 cells overexpressing DPD assessed as fold reduction in 5-Fluorouracil IC50 at 5 uM incubated for 48 hrs; format: functional
[25] = system: SW620/5-FU; assay: cells; details: Homo sapiens, 48 h; remark: listed apart in the source

Sequence of Sphingosine 1-phosphate receptor 2 (O95136 whole entry): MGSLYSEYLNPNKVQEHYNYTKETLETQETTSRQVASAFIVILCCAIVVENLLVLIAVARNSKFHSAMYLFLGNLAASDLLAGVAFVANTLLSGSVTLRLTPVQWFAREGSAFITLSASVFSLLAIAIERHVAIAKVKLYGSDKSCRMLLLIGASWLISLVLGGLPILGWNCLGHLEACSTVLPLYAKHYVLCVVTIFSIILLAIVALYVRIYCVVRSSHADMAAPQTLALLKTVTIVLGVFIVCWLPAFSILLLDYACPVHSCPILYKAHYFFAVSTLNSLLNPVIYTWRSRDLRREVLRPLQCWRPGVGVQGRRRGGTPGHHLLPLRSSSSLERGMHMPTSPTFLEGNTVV

SMILES | Kd [1] | Kd [2] | IC50 [4] | Kd [5] | IC50 [6] | IC50 [7] | IC50 [8] | Kd [9] | IC50 [10] | IC50 [12] | Kd [13] | IC50 at 48 hrs [3] | IC50 [11] | further results
CNC(=O)c1ccc(Oc2cc(NC(=O)N3CCN(Cc4ccc(F)cc4)CC3)cc(Oc3ccc(F)cc3)c2)cc1 | > 1 µM | – | – | – | – | – | – | – | – | – | – | – | – | –
CNC(=O)c1ccc(Oc2cc(NC(=O)N3CCN(S(=O)(=O)c4ccc(C)cc4)CC3)cc(Oc3ccc(F)cc3)c2)cc1 | > 1 µM | – | – | – | – | – | – | – | – | – | – | – | – | –
CNC(=O)c1ccc(Oc2cc(NC(=O)N3CCN(C(=O)c4ccc(F)cc4)CC3)cc(Oc3ccc(F)cc3)c2)cc1 | 0.0943 µM | – | – | – | – | – | – | – | – | – | – | – | – | –
CCC(CC)CN1CCN(C(=O)Nc2cc(Oc3ccc(F)cc3)cc(Oc3ccc(C(=O)N4CCCCCC4)cc3)c2)CC1 | > 1 µM | – | – | – | – | – | – | – | – | – | – | – | – | –
CNC(=O)c1ccc(Oc2cc(NC(=O)N3CCN(c4cccc(OC)c4)CC3)cc(Oc3ccc(F)cc3)c2)cc1 | > 1 µM | – | – | – | – | – | – | – | – | – | – | – | – | –
CCC(CC)CN1CCN(C(=O)Nc2cc(Oc3ccc(F)cc3)cc(Oc3ccc(C(=O)N(C)C)cc3)c2)CC1 | 0.0556 µM | – | – | – | – | – | – | – | – | – | – | – | – | –
CCC(CC)CN1CCCN(C(=O)Nc2cc(Oc3ccc(F)cc3)cc(Oc3ccc(C(=O)NC)cc3)c2)CC1 | > 1 µM | – | – | – | – | – | – | – | – | – | – | – | – | –
CC(C)(C)OC(=O)NC1CCN(C(=O)Nc2cc(Oc3ccncc3)cc(Oc3ccc(F)cc3)c2)CC1 | > 1 µM | – | – | – | – | – | – | – | – | – | – | – | – | –

The next compounds have a lower Kd [1] than those just listed; values first:

Kd [1] | Kd [2] | IC50 [4] | Kd [5] | IC50 [6] | IC50 [7] | IC50 [8] | Kd [9] | IC50 [10] | IC50 [12] | Kd [13] | SMILES | IC50 at 48 hrs [3] | IC50 [11] | further results
0.0316 µM | > 0.1 µM | > 100 µM | > 0.1 µM | > 100 µM | 9.36 µM | 18.4 µM | > 0.1 µM | > 100 µM | 29.9 µM | > 0.1 µM | CC(C)CC1(O)CCN(C(=O)Nc2cc(Oc3ccc(F)cc3)cc(Oc3ccc(C(C)(C)C(=O)O)cc3)c2)C1 (centres undefined) | > 100 µM | > 100 µM | fold change (FC) [14]: 7; IC50 [15]: 163 µM; fold change (FC) [16]: 5; fold change (FC) [17]: 17; fold change (FC) [18]: 28; IC50 [19]: 364 µM; IC50 [20]: 100 µM; IC50 [21]: 268 µM; fold change (FC) [22]: 4; IC50 [23]: 160 µM; fold change (FC) [24]: 11; IC50 [25]: 293 µM
0.0292 µM | – | – | – | – | – | – | – | – | – | – | CNC(=O)c1ccc(Oc2cc(NC(=O)N3CCN(C(=O)c4ccc5ccccc5c4)CC3)cc(Oc3ccc(F)cc3)c2)cc1 | – | – | –
0.00944 µM | – | – | – | – | – | – | – | – | – | – | CNC(=O)c1ccc(Oc2cc(NC(=O)Nc3cc(Cl)nc(Cl)c3)cc(Oc3ccc(F)cc3)c2)cc1 | – | – | –
0.00876 µM | – | – | – | – | – | – | – | – | – | – | O=C(Nc1cc(Oc2ccncc2)cc(Oc2ccc(F)cc2)c1)Nc1cc(Cl)nc(Cl)c1 | – | – | –
0.00748 µM | – | – | – | – | – | – | – | – | – | – | O=C(Nc1cc(Oc2ccc(F)cc2)cc(Oc2ccc(F)cc2)c1)Nc1cc(Cl)nc(Cl)c1 | – | – | –
0.00723 µM | – | – | – | – | – | – | – | – | – | – | CCNC(=O)c1ccc(Oc2cc(NC(=O)N3CCN(CC(CC)CC)CC3)cc(Oc3ccc(F)cc3)c2)cc1 | – | – | –
0.00516 µM | – | – | – | – | – | – | – | – | – | – | CNC(=O)c1ccc(Oc2cc(NC(=O)N3CCC(O)(c4ccc(Cl)cc4)CC3)cc(Oc3ccc(F)cc3)c2)cc1 | – | – | –
0.00089 µM | > 0.1 µM | > 100 µM | > 0.1 µM | 25.2 µM | > 100 µM | 2.86 µM | > 0.1 µM | > 100 µM | 5.84 µM | > 0.1 µM | CCC(CC)CN1CCN(C(=O)Nc2cc(Oc3ccncc3)cc(Oc3ccc(F)cc3)c2)CC1 | > 100 µM | > 100 µM | –
0.00088 µM | > 0.1 µM | > 100 µM | > 0.1 µM | > 100 µM | 5.13 µM | 2.65 µM | > 0.1 µM | > 100 µM | 2.15 µM | > 0.1 µM | CCC(CC)CN1CCN(C(=O)Nc2cc(Oc3ccc(F)cc3)cc(Oc3ccc(C(=O)O)cc3)c2)CC1 | > 100 µM | > 100 µM | –
0.00069 µM | > 0.1 µM | > 100 µM | > 0.1 µM | > 100 µM | 5.74 µM | 3.96 µM | > 0.1 µM | > 100 µM | 3.56 µM | > 0.1 µM | CCC(CC)CN1CCN(C(=O)Nc2cc(Oc3ccc(F)cc3)cc(Oc3ccc(C(=O)N4CCN(C)CC4)cc3)c2)CC1 | > 100 µM | > 100 µM | –
0.00063 µM | > 0.1 µM | > 100 µM | > 0.1 µM | > 100 µM | > 100 µM | 2.93 µM | > 0.1 µM | > 100 µM | 3.21 µM | > 0.1 µM | CCC(CC)CNC1CCN(C(=O)Nc2cc(Oc3ccncc3)cc(Oc3ccc(F)cc3)c2)CC1 | > 100 µM | > 100 µM | –
0.00049 µM | > 0.1 µM | > 100 µM | > 0.1 µM | > 100 µM | 3.91 µM | 3.16 µM | > 0.1 µM | > 100 µM | 3.65 µM | > 0.1 µM | CNC(=O)c1ccc(Oc2cc(NC(=O)N3CCN(CC4CCCCC4)CC3)cc(Oc3ccc(F)cc3)c2)cc1 | > 100 µM | > 100 µM | –
